Measured values taken from patent publication US20250304644A1, “PEPTIDES TRIPLE AGONISTS OF GIP, GLP-1 AND GLP-2” (BAINAN BIOTECH APS, priority 2021, published 2025).
*1 amine or outer side, *2 acyl side, *3 side chain or, on linkers, in order; H or OH if unused. Where no end group is shown, it is not given here. Side-chain parts run from the residue outwards. The star is where a group is joined. C18 diacid = O=C(O)CCCCCCCCCCCCCCCCC(=O)*; γGlu = O=C(O)[C@H](CCC(=O)[*:2])N[*:1]; AEEA = NCCOCCOCC(=O)O

What was measured:
Type in all cases: cell-based
human GIPR = molecular target: T1, human GIPR (Homo sapiens, UniProt P48546); assay: cAMP assay (HitHunter) in transiently transfected COS-7 cells expressing human GIPR
T1 construct: host or cells: COS-7
T1 sequence (P48546 22-466): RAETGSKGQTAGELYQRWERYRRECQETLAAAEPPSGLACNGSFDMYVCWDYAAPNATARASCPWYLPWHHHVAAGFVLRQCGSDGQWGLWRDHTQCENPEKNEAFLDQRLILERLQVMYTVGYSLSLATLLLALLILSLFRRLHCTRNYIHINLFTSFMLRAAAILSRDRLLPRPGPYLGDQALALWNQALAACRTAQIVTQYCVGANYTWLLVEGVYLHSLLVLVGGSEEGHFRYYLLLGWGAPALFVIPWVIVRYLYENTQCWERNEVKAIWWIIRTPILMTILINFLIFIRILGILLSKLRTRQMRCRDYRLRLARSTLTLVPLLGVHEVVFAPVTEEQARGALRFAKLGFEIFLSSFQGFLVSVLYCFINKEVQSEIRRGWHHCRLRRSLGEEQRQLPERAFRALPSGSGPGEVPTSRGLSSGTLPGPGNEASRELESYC

human GLP-2R = molecular target: T2, human GLP-2R (Homo sapiens, UniProt O95838); assay: cAMP assay (HitHunter) in transiently transfected COS-7 cells expressing human GLP-2R
T2 construct: host or cells: COS-7
T2 sequence (O95838 1-553): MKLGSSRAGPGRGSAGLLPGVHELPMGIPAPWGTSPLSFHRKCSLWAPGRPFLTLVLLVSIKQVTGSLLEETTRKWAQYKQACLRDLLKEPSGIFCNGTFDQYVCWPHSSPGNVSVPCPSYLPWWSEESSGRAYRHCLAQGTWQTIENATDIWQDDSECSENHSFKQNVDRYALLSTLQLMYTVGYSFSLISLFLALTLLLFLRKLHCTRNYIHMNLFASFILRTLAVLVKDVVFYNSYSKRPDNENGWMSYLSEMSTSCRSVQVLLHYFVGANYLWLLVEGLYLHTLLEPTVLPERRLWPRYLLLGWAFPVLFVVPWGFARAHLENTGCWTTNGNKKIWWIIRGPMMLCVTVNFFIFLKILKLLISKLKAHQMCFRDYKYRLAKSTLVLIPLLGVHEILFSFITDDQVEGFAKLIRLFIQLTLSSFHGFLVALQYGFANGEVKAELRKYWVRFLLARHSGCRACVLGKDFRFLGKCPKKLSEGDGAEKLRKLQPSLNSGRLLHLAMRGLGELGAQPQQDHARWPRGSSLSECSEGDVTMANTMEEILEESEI

human GLP-1R = molecular target: T3, human GLP-1R (Homo sapiens, UniProt P43220); assay: cAMP assay (HitHunter) in transiently transfected COS-7 cells expressing human GLP-1R
T3 construct: host or cells: COS-7
T3 sequence (P43220 24-463): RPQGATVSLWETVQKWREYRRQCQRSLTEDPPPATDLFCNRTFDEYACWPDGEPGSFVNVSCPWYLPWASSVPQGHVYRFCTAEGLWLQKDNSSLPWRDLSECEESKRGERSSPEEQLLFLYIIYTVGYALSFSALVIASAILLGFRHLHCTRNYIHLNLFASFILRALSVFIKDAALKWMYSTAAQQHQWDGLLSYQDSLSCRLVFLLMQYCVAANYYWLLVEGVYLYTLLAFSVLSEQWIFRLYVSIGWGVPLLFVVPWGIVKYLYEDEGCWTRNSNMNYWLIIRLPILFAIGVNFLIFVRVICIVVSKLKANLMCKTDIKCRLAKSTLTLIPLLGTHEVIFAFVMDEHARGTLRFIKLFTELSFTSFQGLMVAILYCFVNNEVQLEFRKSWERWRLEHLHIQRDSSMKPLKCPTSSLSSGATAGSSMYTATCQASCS

[1] = molecular target: human glucagon receptor (GCGR) (Homo sapiens, UniProt P47871); assay: Gs activation measured as cAMP accumulation on human glucagon receptor (FIG. 1 radar plot); conditions: read-out: −p Log EC50 on human glucagon receptor (GCGR) (converted)
Chain of human glucagon receptor (GCGR) (P47871 26-477): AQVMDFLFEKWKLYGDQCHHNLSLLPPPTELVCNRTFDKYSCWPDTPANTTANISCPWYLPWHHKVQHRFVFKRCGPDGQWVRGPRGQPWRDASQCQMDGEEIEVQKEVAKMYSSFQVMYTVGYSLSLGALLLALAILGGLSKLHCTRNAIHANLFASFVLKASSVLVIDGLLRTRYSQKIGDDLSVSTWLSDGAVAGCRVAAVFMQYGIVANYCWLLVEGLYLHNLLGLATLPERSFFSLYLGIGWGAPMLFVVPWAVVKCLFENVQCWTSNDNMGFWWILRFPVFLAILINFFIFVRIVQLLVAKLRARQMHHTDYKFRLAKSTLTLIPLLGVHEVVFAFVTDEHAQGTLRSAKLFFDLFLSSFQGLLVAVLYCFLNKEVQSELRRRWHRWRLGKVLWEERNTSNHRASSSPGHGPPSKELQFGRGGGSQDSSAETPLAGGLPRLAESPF
Description: Here, the compounds 20, 21, 22, 28, 30, 31,32, 33, 34, 35 are shown in terms of their potencies in Gs activation, measured as CAMP accumulation, depicted in a radar plot. The numbers refer to −p Log EC50 values. […] The outer rings correspond to higher potencies, the inner rings correspond to lower potencies.

human SNAP-tagged GIPR = molecular target: T4, human SNAP-tagged GIPR (Homo sapiens, UniProt P48546); assay: Receptor internalization assay, HEK293A cells expressing human SNAP-tagged GIPR
T4 construct: host or cells: HEK293A
T4 sequence (P48546 22-466): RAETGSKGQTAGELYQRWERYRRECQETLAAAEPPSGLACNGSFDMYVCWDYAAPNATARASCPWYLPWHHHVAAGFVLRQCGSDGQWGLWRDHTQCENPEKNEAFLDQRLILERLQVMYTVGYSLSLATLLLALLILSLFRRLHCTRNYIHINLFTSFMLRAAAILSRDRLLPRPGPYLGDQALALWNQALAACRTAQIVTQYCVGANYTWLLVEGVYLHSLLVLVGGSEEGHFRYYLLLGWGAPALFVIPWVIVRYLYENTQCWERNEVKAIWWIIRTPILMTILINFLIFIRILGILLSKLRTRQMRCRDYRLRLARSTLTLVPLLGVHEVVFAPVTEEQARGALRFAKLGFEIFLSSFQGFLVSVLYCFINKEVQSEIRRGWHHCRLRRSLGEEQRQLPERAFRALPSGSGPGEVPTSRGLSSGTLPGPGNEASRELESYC

human SNAP-tagged GLP-1R = molecular target: T5, human SNAP-tagged GLP-1R (Homo sapiens, UniProt P43220); assay: Receptor internalization assay, HEK293A cells expressing human SNAP-tagged GLP-1R
T5 construct: expressed in transfected cells; host or cells: HEK293A
T5 sequence (P43220 24-463): as the sequence (P43220 24-463) above

human SNP-tagged GLP-2R = molecular target: T6, human SNP-tagged GLP-2R (Homo sapiens, UniProt O95838); assay: Receptor internalization assay, HEK293A cells expressing human SNAP-tagged GLP-2R
T6 construct: expressed in transfected cells; host or cells: HEK293A
T6 sequence (O95838 1-553): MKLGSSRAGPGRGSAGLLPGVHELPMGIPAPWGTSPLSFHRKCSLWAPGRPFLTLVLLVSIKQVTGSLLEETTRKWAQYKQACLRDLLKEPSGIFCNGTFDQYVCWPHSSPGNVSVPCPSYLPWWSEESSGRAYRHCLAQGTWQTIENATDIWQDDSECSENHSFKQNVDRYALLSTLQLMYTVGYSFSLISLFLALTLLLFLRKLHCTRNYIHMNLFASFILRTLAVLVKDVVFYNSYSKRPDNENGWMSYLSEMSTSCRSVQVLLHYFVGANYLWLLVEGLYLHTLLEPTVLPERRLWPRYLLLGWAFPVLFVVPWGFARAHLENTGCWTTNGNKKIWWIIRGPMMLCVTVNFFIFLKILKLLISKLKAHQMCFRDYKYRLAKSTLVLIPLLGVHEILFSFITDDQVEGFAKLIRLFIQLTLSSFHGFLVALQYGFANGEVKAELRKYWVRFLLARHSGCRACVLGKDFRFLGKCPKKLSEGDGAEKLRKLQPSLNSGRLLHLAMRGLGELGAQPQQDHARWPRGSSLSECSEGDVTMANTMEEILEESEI

[2] = AUC of sigmoid curves up to 1 μM, 60 minutes at 37° C.

Q: With “HADGTFTSDYSIILDK([AEEA-AEEA-γGlu-C18 diacid])LAARDFINWLIQTKGKKNDWKHNITQ-OH [Compound 20]” as the substance, how does the Emax (human GIPR; COS-7, normalized to highest concentration of the endogenous ligand, read-out: Efficacy GIPR (Emax)) read?
A: 112%

Q: And the EC50 (human GIPR; cAMP, COS-7 cells, human GIPR)?
A: 0.126 nM

Q: And the Emax (human GLP-2R; COS-7, normalized to highest concentration of the endogenous ligand, read-out: Efficacy GLP-2R (Emax))?
A: 100%

Q: And the EC50 (human GLP-2R; cAMP, COS-7 cells, human GLP-2R, read-out: logEC50 GLP-2R (converted))?
A: 0.316 nM

Q: What about the Emax (human GLP-1R; COS-7, normalized to highest concentration of the endogenous ligand, read-out: Efficacy GLP-1R (Emax)) of the same substance?
A: 112%

Q: And the EC50 (human GLP-1R; cAMP, COS-7 cells, human GLP-1R, read-out: logEC50 GLP-1R (converted))?
A: 0.0398 nM

Q: What about the EC50 [1] of the same substance?
A: > 100 nM

Q: And the “Absolute hGIPR internalization (AUC)” value (human SNAP-tagged GIPR; [2])?
A: 14.2

Q: And the “GIPR internalization (in words)” value (human SNAP-tagged GIPR; compared to native GIP)?
A: reduced internalization compared to native GIP

Q: What about the “Relative hGIPR internalization (%)” value (human SNAP-tagged GIPR; relative to hGIP 1-42 = 100) of the same substance?
A: 38%

Q: And the “Absolute hGLP-1R internalization (AUC)” value (human SNAP-tagged GLP-1R; [2])?
A: 91.8

Q: What about the “GLP-1R internalization (in words)” value (human SNAP-tagged GLP-1R; compared to native GLP-1) of the same substance?
A: comparable to native GLP-1 and GLP-2

Q: What about the “Relative hGLP-1R internalization (%)” value (human SNAP-tagged GLP-1R; relative to hGLP-1 = 100) of the same substance?
A: 109.14%

Q: What about the “Absolute hGLP-2R internalization (AUC)” value (human SNP-tagged GLP-2R; [2]) of the same substance?
A: 39.4

Q: And the “GLP-2R internalization (in words)” value (human SNP-tagged GLP-2R; compared to native GLP-2)?
A: comparable to native GLP-1 and GLP-2

Q: What about the “Relative hGLP-2R internalization (%)” value (human SNP-tagged GLP-2R; relative to native ligand = 100) of the same substance?
A: 81.0%
